The values that follow come from patent publication US20240366526A1, “COMPOSITIONS AND METHODS FOR MAINTAINING OR ENHANCING MICROBIAL BALANCE OF THE SKIN AND MUCOSA” (Reckitt Benckiser Health Limited, priority 2023, published 2024).

The structures appear in SMILES notation.

What all share (assay): MIC determination (EUCAST / ISO 20776 microdilution)
Common to all, as to assay type: cell-based

Assay [1] deals with Lactobacillus crispatus LF6. On the procedure:
(§1) Sequential dilutions (1:2) were prepared in a sterile 96 wells plate with culture medium. All preparations were performed in aseptic conditions. For each of the ingredients tested, 8 concentrations were tested. […] De Man, Rogosa and Sharpe Broth (MRSB) media was used for growth of Lactobacillus spp., New York City III Broth ([…]) media and Roswell Park Memorial Institute 1640 (RPMI-1640) media was used respectively to grow Gardnerella vaginalis and Candida albicans. […] After homogenization of the working microbial suspension with dilutions of the two ingredients, the 96-well plates were incubated according to the incubation conditions suitable for each microorganism. For, L. crispatus and L. gasseri, incubation was done at 37° C. for 24 and 48h in microaerophilic atmosphere. […] After incubation, the wells were evaluated macroscopically to check for microorganism growth. Turbid wells indicated the presence of microbial growth, and clear wells indicated the absence of microbial growth. The lowest concentration tested in which wells without turbidity, correspondent to the minimum inhibitory concentration (MIC). To validate the test, three negative controls (sterility control of the culture medium; study substance dilutions with culture medium; emulsifier with culture medium) and two positive controls (growth control for each microorganism using culture media and growth control for each microorganism using emulsifier with culture media) were performed.

The next assay relates to Candida albicans LF1. On the procedure:
as §1

For assay [2], the system named is Lactobacillus gasseri LF7. Here is the method:
as §1

Assay [3] has as its system Gardnerella vaginalis LF1. Particulars: clinical vaginal isolate; 37° C., microaerophilic, 24 and 48 h; single substance. From the text:
The strains used were Lactobacillus crispatus LF6 and Lactobacillus gasseri LF7), one strain of Gardnerella vaginalis LF1 and one strain of Candida albicans LF, that correspond to clinical isolates collected from women vaginal cavity. The antimicrobial activity method was based on the current standards described by EUCAST (European Committee on Antimicrobial Susceptibility Testing) and ISO 20776-1 (2006) and ISO 20776-2-(2007) for determining the minimum inhibitory concentration (MIC). Terpinen-4-ol and Carvacrol were emulsified with DMSO (up to 1% (v/v)) in culture medium to obtain a concentration corresponding to 2× higher than the testing one. Sequential dilutions (1:2) were prepared in a sterile 96 wells plate with culture medium. […]
In parallel, calibrated suspensions of microorganisms were prepared with a cell density of 1.0 on the McFarland scale (Lactobacillus spp. and Candida albicans) and 0.13 absorbance (Gardnerella vaginalis), corresponding to 1×10^8 CFU/mL for bacteria (Lactobacillus spp. and Gardnerella vaginalis) and 1×10^6 CFU/mL for yeast (Candida albicans). […]
After homogenization of the working microbial suspension with dilutions of the two ingredients, the 96-well plates were incubated according to the incubation conditions suitable for each microorganism. […] After incubation, the wells were evaluated macroscopically to check for microorganism growth. […]

[4] abbreviates: terpinen-4-ol 2.5 μl/ml and 5 μl/ml.

In the case of `Cc1ccc(C(C)C)cc1O` [Carvacrol, carvacrol], in assay [1] (carvacrol 0.31 μl/ml), the “effect on Lactobacillus crispatus growth” value is given as “unaffected”. In addition, the “inhibition for C. albicans LF1” value with Candida albicans LF1 (carvacrol 0.31 μl/ml) is 50%. For the same compound, in assay [2] (carvacrol 0.31 μl/ml), the “effect on Lactobacillus gasseri growth” value is “unaffected”. In addition, the “MIC for Gardenella vaginalis LF1” value in assay [3] is recorded as 0.31 μl/ml.

With `CC1=CCC(O)(C(C)C)CC1` (centres unmarked) [Terpinen-4-ol], the “effect on Lactobacillus crispatus growth” value in assay [1] (setting [4]) is on record as “unaffected”. Moreover, in the assay with Candida albicans LF1 (clinical vaginal isolate, 32.5° C., aerophilic, 24 and 48 h, single substance), the “MIC for C. albicans LF1” value was 5 μl/ml. In addition, the “effect on Lactobacillus gasseri growth” value in assay [2] (setting [4]) was “unaffected”. The “MIC for Gardenella vaginalis LF1” value in assay [3] is 2.5 μl/ml.
